# Data reported in US6451288B1, “Method of treating lung diseases with uridine 5′-diphosphate and analogs thereof” (The University of North Carolina at Chapel Hill, priority 1997, dated 2002).
# Biological target: T1, human P2Y6 receptor (Homo sapiens, UniProt Q15077)
# T1 construct: expressed in transfected cells
# Test: Inositol phosphate accumulation in 1321N1 astrocytoma cells overexpressing the human P2Y6 receptor
# Assay type: cell-based
# Settings: 60 min, hexokinase/glucose present
# Method: The following method was used for measuring inositol phosphate accumulation of the UDP analogs described within this example as drugs. 1321N1 astrocytoma cells, stably overexpressing the human P2Y6 receptor (Nicholas, et al., Mol. Pharmacol. 50, 224-229 (1996)), were seeded into 96 well plates (7500 cells/well) in DMEM-H supplemented with 10% FCS. After 48 hours, the growth media was replaced with inositol-free DMEM-H supplemented with 2.5% dialyzed FCS and [^3H]-inositol (0.2 uCi/well) to radiolabel hormone-responsive inositol phospholipid pools. Cells were stimulated 48 hours later. At the time of assay, the culture media was supplemented with 25 mM HEPES (pH 7.4) and 10 mM […] to prevent hydrolysis of [^3H]-inositol phosphates. In addition, hexokinase (0.03 U/well) and glucose (50 mM final concentration) was added to the cultures to provide an enzymatic mechanism for the depletion of nucleoside triphosphates contaminating drug solutions or released from cells prior to/or during cell stimulation reactions. Drugs were diluted in phosphate buffered saline containing hexokinase/glucose and incubated at 37° for 30 minutes prior to addition to cells. Reactions were terminated after 60 minutes by rapid aspiration of media followed by the addition of ice cold EDTA (1.0 mM) and incubation on ice for at least 15 minutes prior to resolution of [^3H]-inositol phosphates by ion exchange chromatography as described (Brown, et. al., supra).
# T1 sequence (Q15077 whole entry): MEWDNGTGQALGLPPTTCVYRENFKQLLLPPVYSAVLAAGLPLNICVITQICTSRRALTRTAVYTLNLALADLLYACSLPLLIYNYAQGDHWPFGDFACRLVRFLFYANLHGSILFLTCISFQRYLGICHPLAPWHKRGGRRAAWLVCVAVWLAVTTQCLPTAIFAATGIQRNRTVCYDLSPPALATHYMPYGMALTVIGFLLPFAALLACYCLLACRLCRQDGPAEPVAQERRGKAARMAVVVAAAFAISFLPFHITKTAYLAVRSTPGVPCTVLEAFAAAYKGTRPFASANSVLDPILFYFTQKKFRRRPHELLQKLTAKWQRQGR
row,Structure (SMILES),EC50 [µM]
1,"CCCCCCNc1ccn([C@@H]2O[C@H](COP(=O)(O)OP(=O)(O)O)[C@@H](O)[C@H]2O)c(=O)n1 [Compound E, N-hexylcytidine 5′-diphosphate]",25.5
2,"CN(C)c1ccn([C@@H]2O[C@H](COP(=O)(O)OP(=O)(O)O)[C@@H](O)[C@H]2O)c(=O)n1 [Compound C, N,N-dimethylcytidine 5′-diphosphate]",41.7
3,"O=c1[nH]c(=O)n([C@@H]2O[C@H](COP(=O)(O)OP(=O)(O)O)[C@@H](O)[C@H]2O)cc1C#Cc1ccccc1 [Compound G, 5-(Phenylethynyl)uridine 5′-diphosphate]",0.02
4,"CCCCCCSc1ccn([C@@H]2O[C@H](COP(=O)(O)OP(=O)(O)O)[C@@H](O)[C@H]2O)c(=O)n1 [Compound J, 4-Hexylthiouridine 5′-diphosphate]",1.8
5,"CCCCCCOc1ccn([C@@H]2O[C@H](COP(=O)(O)OP(=O)(O)O)[C@@H](O)[C@H]2O)c(=O)n1 [Compound B, 4-Hexyloxyuridine 5′-diphosphate]",3
6,"O=c1ccn([C@@H]2O[C@H](COP(=O)(O)OP(=O)(O)O)C[C@H]2O)c(=O)[nH]1 [Compound H, 3′-Deoxyuridine 5′-diphosphate]",2.1
7,"COc1ccn([C@@H]2O[C@H](COP(=O)(O)OP(=O)(O)O)[C@@H](O)[C@H]2O)c(=O)n1 [Compound D, 4-Methoxyuridine 5′-diphosphate]",4.7
8,"O=c1nc(NC2CCCC2)ccn1[C@@H]1O[C@H](COP(=O)(O)OP(=O)(O)O)[C@@H](O)[C@H]1O [Compound I, N-Cyclopentylcytidine 5′-diphosphate]",8.6
9,"O=c1nc(N2CCOCC2)ccn1[C@@H]1O[C@H](COP(=O)(O)OP(=O)(O)O)[C@@H](O)[C@H]1O [Compound F, 4-(N-morpholino)uridine 5′-diphosphate]",55.1
10,"Cc1cn([C@@H]2O[C@H](COP(=O)(O)OP(=O)(O)O)[C@@H](O)[C@H]2O)c(=O)[nH]c1=O [Compound A, 5-Methyluridine 5′-diphosphate]",0.5

# Tested on: human nasal epithelial cells
# Test: Cytosolic Ca2+ measurement (Fura-2) in human nasal epithelial cells
# Assay type: cell-based
# Settings: after multiple additions of UDP
# Method: Human nasal epithelial cells were harvested from turbinates using protease XIV (Sigma, St. Louis, Mo.) for 24-48 h at 4° C., as previously described. R. Wu, et al., Am. Rev. Respir. Dis. 132, 311-320 (1985). Cytosolic Ca^2+ and inositol phosphate measurements were made on nasal cell monolayers plated on porous Transwell Col filters (pore diameter 0.45 μm; Costar, Cambridge, Mass.) and maintained in Ham's F12 media supplemented with 10 ng/mL epidermal growth factor, 3.75 ng/mL endothelial cell growth factor, 500 ng/mL hydrocortisone, 5 ng/mL insulin, and 1 mM CaCl2 (Ham's F12+4X medium). Assays were carried out 7 to 10 days after seeding, a time coincident with the development of the maximal transepithelial potential difference according to N. Nakahata & T. K. Harden, Biochem. J. 241, 337-344 (1987).
# Nasal cells grown on Transwell Col filters affixed to O-rings were maintained in F12+4X medium and studied 7-10 days after cell plating as described above. For Ca^2+i measurements, cells were loaded with Fura-2 and mounted in a miniature Ussing chamber over an objective of a microscope (Zeiss) coupled to a microfluorimeter, and cytosolic Ca^2+i levels were quantitated as previously described in Paradiso et al., supra. The fluorescence intensity ratio (excitation 340/380; emission λ 450 nm) was collected from a field of 30-40 nasal cells on monolayers and converted to Ca^2+ as previously described in E. H. Larsen et al, J. Physiol. 424, 109-131 (1990). For simultaneous measurements of Cl^− secretion, the transepithelial potential difference (TEP) was measured by a Voltage-Clamp/Pulse Generator (Model VCC600, Physiologic Instruments, San Diego, Calif.) and recorded on a two-channel recorder (Linsesis Model L200S). To calculate changes in Cl^− secretory current (ΔICl^−), a defined 1 sec current pulse was delivered across the monolayer every 10 sec. The nasal tissue was converted from its native Na^+ absorptive state to a Cl^− secretory state by exposing monolayers to a luminal medium containing 0 Na^+/low Cl^− and to a basolateral medium of Krebs bicarbonate Ringer solution.
row,Structure (SMILES),Responses following multiple additions of UDP
1,"Nc1ncnc2c1ncn2[C@@H]1O[C@H](COP(=O)(O)OP(=O)(O)OP(=O)(O)O)[C@@H](O)[C@H]1O [ATP, reference compound]",retained
